Assay results published in US20170304309A1, “CAFFEINE FOR THE TREATMENT OF MYOTONIC DYSTROPHY TYPE 1 AND TYPE 2” (UNIVERSITAT DE VALÈNCIA, priority 2014, published 2017).

Tests used:
CAG-CTG repeat sequences = details: high doses of caffeine, close to 2 mM; cited from earlier work
[1] = system: CUG repeat RNA (6-FAM-CUG23); assay: Fluorescence polarization assay with 6-FAM-CUG23 RNA; type: binding; details: increasing concentrations, up to twice those of positive control pentamidine
Method: This was assessed in fluorescence polarization spectroscopy experiments in which fluorescent CUG RNA probe (carboxyfluorescein (6-FAM)-labeled) was incubated in increasing concentrations of caffeine.
Carboxyfluorescein-labeled CUG RNA (23 CUG repeats; 6-FAM-CUG23) at 6 nM was incubated with caffeine at different concentrations in binding buffer (50 mM Tris-HCl pH 7.0, 250 mM NaCl, 50 μM ZnCl2, 10% glycerol, 1 mM DTT) on ice for 20 min in the dark. Polarization was measured in a EnVision® Multilabel Reader using as excitation filter FP480 and as emission filter FP535.

foci = details: WO03/020977; cited from earlier work
[2] = system: ribonuclear foci in DM1 fibroblasts; assay: Ribonuclear foci detection by in situ hybridization in DM1 fibroblasts; details: caffeine in culture media, vs DMSO
Method: Cell model of the disease (provided by the D. Furling's laboratory, Institute of Myologie, Paris) consisted of normal and DM1 (1300 CTG repeats) immortalized (hTERT) skin fibroblasts expressing conditional MyoD. […] Fibroblasts were transdifferentiated in myoblasts by inducing expression of MyoD. Cells were plated in muscle differentiation medium (MDM) made of DMEM 4.5 g/L glucose with 1% P/S, 2% horse serum, 1% apo-transferrin (10 mg/ml), 0.1% insulin (10 mg/ml) and 0.02% doxycyclin (10 mg/ml) for 48 h. For compound testing fibroblasts were aliquoted in 24-well plate with 3.5×10^4 cells per well and were differentiated as before.

normal fibroblasts = assay: MTS cell viability of normal fibroblasts exposed to caffeine; type: cell-based, human; details: highest concentration (500 μM), 24 h, relative to cells not exposed to caffeine
Method: Cells were aliquoted in 96-well plate with 1.0×10^4 cells per well and incubated for 24 h. […] To measure cell viability, MTS tetrazolium salt was added to each well and was incubated for 4 h at 37° C. in a humidified chamber with 5% CO2. The conversion of MTS into soluble formazan (accomplished by dehydrogenase enzymes from metabolically active cells) was measured by absorbance at 490 nm (CellTiter 96® Aqueous Non-Radioactive Cell Profileration Assay, Promega). Data were transformed to percentage of survival relative to cells not exposed to caffeine, which established 100% viability.

DM1 model flies = assay: Climbing assay in DM1 model flies; type: in vivo, Drosophila; details: 1.72 mM caffeine in nutritive media vs DMSO
Method: Groups of ten 5-day-old males were transferred into vials of 1.5 cm in diameter and 25 cm in height, after a period of 24 hours without anesthesia. The height reached from the bottom of the vial by each fly in a period of 10 s was recorded with a camera. For each genotype, approximately 30 flies were tested. […] We used a t-test to assess the statistical difference between the two groups of flies, fed with or without compound.

[3] = system: human MBNL1 promoter under Drosophila muscleblind ME enhancer (eGFP reporter); assay: eGFP reporter expression in ME:hsaP1-eGFP transgenic flies; type: in vivo; details: heterozygous ME:hsaP1-eGFP flies, 25 mg/ml caffeine in food, 8 h, vs sucrose
[4] = system: MBNL1 expression in human DM1 myoblasts; assay: Immunodetection of MBNL1 in DM1 myoblasts; type: cell-based
Method: Fibroblasts were transdifferentiated in myoblasts by inducing expression of MyoD. Cells were plated in muscle differentiation medium (MDM) made of DMEM 4.5 g/L glucose with 1% P/S, 2% horse serum, 1% apo-transferrin (10 mg/ml), 0.1% insulin (10 mg/ml) and 0.02% doxycyclin (10 mg/ml) for 48 h. For compound testing fibroblasts were aliquoted in 24-well plate with 3.5×10^4 cells per well and were differentiated as before. […] Cells were then incubated with ABC solution (ABC kit, VECTASTAIN) for 30 min at room temperature, followed by PBT washes and incubation with streptavidin-FITC (1:1000) for 20 min.

CUG repeats = details: WO03/020977; cited from earlier work
[5] = system: DM1 pathology (splicing defects); details: cited from earlier work
sodium channel = details: small studies; cited from earlier work

## Cn1c(=O)c2c(ncn2C)n(C)c1=O [caffeine]
CAG-CTG repeat sequences
  increase of the rate of expansion: ~63%
[1]
  polarization values of 6-FAM-CUG RNA (binding to CUG repeats): did not increase
foci
  number of foci: increases
[2]
  mean number of ribonuclear foci per cell: increased
Normal fibroblasts
  percentage of survival of normal fibroblasts (living cells): greater than 50%
DM1 model flies
  climbing velocity: significantly improved
[3]
  expression of the eGFP reporter, normalized to total protein: significantly increase
[4]; 125 and 250 μM caffeine, 48 h, vs DMSO alone
  MBNL1 expression in the cytoplasm and in the cell nucleus: increased
[4]; caffeine-treated vs DMSO-treated cells
  number of MBNL1-containing foci: qualitatively higher
CUG repeats
  binding to CUG repeats: not able to bind

## N=C(N)c1ccc(OCCCCCOc2ccc(C(=N)N)cc2)cc1 [pentamidine]
[5]
  rescue of DM1 pathology: partial rescue

## Cc1cccc(C)c1OCC(C)N (stereo not drawn) [Mexiletine, mexiletine]
Sodium channel
  myotonia: reduced
